Experimental data published in patent publication US5849753A, “Pyridyl imidazole derivatives and processes for the preparation thereof” (Korea Research Institute of Chemical Technology, priority 1994, dated 1998).

Assays:
renal hypertensive rat = experiment: Blood pressure lowering effect in renal hypertension (renal hypertensive rats, intravenous or oral); format: in vivo, male Sprague-Dawley rats; settings: 3 mg, read-out: Maxium Blood Pressure Lowering Effect(%)
Description: To induce renal hypertension, left renal artery of 4 week-old male Sprague-Dawley rats(from The Korea Research Institute of Chemical Technology) was ligated. The rats were anesthetized with ether and the surgical region on the left abdomen of the rat was shaved, disinfected, and then incised about 1 cm vertically. The renal artery near abdominal aorta was isolated carefully from surrounding tissues and veins, and then ligated completely with a suture(4/0 sterile surgical silk). The muscular strata and skin of the surgical area were sutured with a suture(4/0 sterile surgical silk). The surgical region was disinfected to prevent infection and thereafter, 200 to 250 mg/Kg/day of cephazolin sodium was injected intramuscularly for 2 days. 6 to 8 days after the ligation, rats showing systolic pressure of more than 180 mmHg were selected for renal hypertension test. The blood pressure was determined by a tail-cuff method from the tail under unanesthetized condition(Gerold, M. et al., Arzneimittrel-Forsch, 18, 1285(1968)).
Each of the compounds to be tested was administered intravenously or orally into the renal hypertensive rat. The blood pressure of the rats was determined by direct method(Chiu, A. T. et al., J. Pharmacol. Exp. Ther. 250, 867(1989)) using a catheter. The rats were anesthetized with ketamine hydrochloride(125 mg/kg, i.p.) and a catheter was filled with saline and inserted into a carotid artery and carotid vein. The surgical area was sutured with a metal clip. The rats were relaxed at least 3 hours and the catheter in the carotid artery was adapted to an isotec pressure transducer to determine their blood pressure and heart rate with a physiograph(Linearcorder WR3310). After the blood pressure was stabilized, the test compound was administered intravenously or orally. For intravenous administration, the administered volume and washing volume were 1.0 ml/Kg and 0.2 ml, respectively. The blood pressure and heart rate were measured in regular intervals up to 24 hours after the administration of the test compound and compared with those measured after the administration of the control compound Losartan.
The test compound was dissolved in 0.05N KOH for intravenous administration and suspended in Tween 80 for oral administration.

angiotensin II receptor = experiment: Angiotensin II Receptor Binding Assay ([3H] angiotensin II binding inhibition); settings: [3H] angiotensin II ligand; 60 minutes, 25° C.; test concentration not given
Experimental: In accordance with the procedure disclosed in Chiu, A. T. et al., Eur. J. Pharm., 157, 13(1981), a ligand marked with a radioisotope was reacted with an angiotensin II receptor and the reactant was filtered with a glass fiber to remove unreacted ligand. After washing the filter, the amount of the remaining isotope was measured to determine the binding activity of the ligand, as described below in detail.
Sprague-Dawley rats and Wistar rats of 250 to 350 g(from The Korea Research Institute of Chemical Technology) were tested and the test procedures were carried out at 4° C., unless otherwise specified. Adrenal gland was separated from the Sprague-Dawley rats(liver, in the case of Wistar rats) into cortex and medulla. The separated adrenal cortex and medulla were washed with a sucrose buffer solution (0.2M sucrose, 1 mM EDTA, 10 mM Tris, pH 7.2) and homogenized in the same buffer solution by using a Teflon pestle and a Brinkmann homogenizer. The homogenates were centrifuged at 3,000 Xg for 10 minutes to remove precipitates and further centrifuged at 12,000 Xg for 13 minutes. The final supernatants were centrifuged at 102,000 Xg for 1 hour to obtain precipitates, which were washed with a Tris buffer solution(50 mM Tris, 5 mM MgCl2, pH 7.2) and re-centrifuged at 102,000 Xg for 1 hour. The resulting precipitates were immediately processed at the following step or stored at -70° C.
The precipitates were suspended in a Tris buffer solution. The amount of protein was determined by using a Bio-Rad DC protein analyzing kit and the protein concentration was adjusted to the amounts of: 0.2 to 0.3 mg/ml(Sprague-Dawley rat: adrenal cortex), 1.5 to 2.0 mg/ml(Sprague-Dawleyrat: adrenal medulla), and 1.5 to 2.0 mg/ml(Wistar rat: liver). To the suspension, bovine serum albumin(BSA) was added to a concentration of 0.25 wt % and the resultant was immediately processed at the following step or stored at -70° C.
(ii) Measurement of angiotensin II receptor binding capacity 50 μl(based on ligand) of [^3 H] angiotensin II(NEN, NET-446) and 10 μl of each of the test compounds with various concentrations were added to the buffer solution(50 mM Irris(pH 7.2), 5 mM MgCl2, 0.25% BSA) to adjust the final volume to be 0.5 ml. 100 μl of the receptor suspension was added thereto and the resulting solution was reacted for 60 minutes while stirring in a water bath at 25° C. 3 ml of cold buffer solution for analysis was added to cease the reaction. The isotope which was bound to the receptor was isolated from the resultant by using Brandel Cell Harvester System with Whatman glass fiber GF/C. After washing the filter, the radioactivity of the filter was determined by using a liquid scintillation counter. Binding inhibition(%) of the test compound was calculated as follows:
Binding Inhibition(%)=[{(T--B)-(S--B)}/(T--B)]×100
wherein T is cpm of the reaction product untreated with the test compound, S is cpm of the reaction product treated with the test compound, and B is cpm of blank test.

Row | Binding Inhibition(%) (angiotensin II receptor) | SMILES | change in vivo at 3 mg (renal hypertensive rat) [%]
1 |  | CCCCc1nc2cc(-c3ccccc3)c(C(OCC)OCC)nc2n1Cc1ccc(-c2ccccc2-c2nnn[nH]2)cc1 [Example 2, 2-butyl-5-diethoxymethyl-6-phenyl-3-[2'-(1H-tetrazol-5-yl)-biphenyl-4-ylmethyl]-3H-imidazo[4,5-b]pyridine] | -45
2 | 70.6 | CCCCc1nc2cc(-c3ccccc3)c(C3OCCO3)nc2n1Cc1ccc(-c2ccccc2-c2nnn[nH]2)cc1 [Example 3, 2-butyl-5-(1,3-dioxolan-2-yl)-6-phenyl-3-[2'-(1H-tetrazol-5-yl)-biphenyl-4-ylmethyl]-3H-imidazo[4,5-b]pyridine] | -27
3 | 60.9 | CCCCc1nc2cc(-c3ccccc3)c(C3OCCCO3)nc2n1Cc1ccc(-c2ccccc2-c2nn[nH]n2)cc1 [Example 4, 2-butyl-5-(1,3-dioxan-2-yl)-6-phenyl-3-[2'-(1-tetrazol-5-yl)-biphenyl-4-ylmethyl]-3H-imidazo[4,5-b]pyridine] | -33
4 | 54.1 | CCCCc1nc2cc(-c3ccccc3)c(C3SCCS3)nc2n1Cc1ccc(-c2ccccc2-c2nnn[nH]2)cc1 [Example 5, 2-butyl-5-(1,3-dithiolan-2-yl)-6-phenyl-3-[2'-(1H-tetrazol-5-yl)-biphenyl-4-ylmethyl]-3H-imidazo[4,5-b]pyridine] | 
5 | 49.0 | CCCCc1nc2cc(-c3ccc(OC)cc3)c(C(OC)OC)nc2n1Cc1ccc(-c2ccccc2-c2nn[nH]n2)cc1 [Example 6, 2-butyl-5-dimethoxymethyl-6-(4-methoxyphenyl-1-yl)-3-[2'-(1H-tetrazol-5-yl)-biphenyl-4-ylmethyl]-3H-imidazo[4,5-b]pyridine] | -25
6 | 78.1 | CCCCc1nc2cc(Br)c(C(OC)OC)nc2n1Cc1ccc(-c2ccccc2-c2nnn[nH]2)cc1 [Example 7, 2-butyl-5-dimethoxymethyl-6-bromo-3-[2'-(1H-tetrazol-5-yl)-biphenyl-4-ylmethyl]-3H-imidazo[4,5-b]pyridine] | 
7 | 45.2 | CCCCc1nc2cc(-c3ccc(F)cc3)c(C(OC)OC)nc2n1Cc1ccc(-c2ccccc2-c2nn[nH]n2)cc1 [Example 9, 2-butyl-5-dimethoxymethyl-6-(4-fluorophenyl-1-yl)-3-[2'-(1H-tetrazol-5-yl)-biphenyl-4-ylmethyl]-3H-imidazo[4,5-b]pyridine] | 
8 | 83.6 | CCCCc1nc2ccc(C(OC)OC)nc2n1Cc1ccc(-c2ccccc2-c2nnn[nH]2)cc1 [Example 10, 2-butyl-5-dimethoxymethyl-3-[2'-(1H-tetrazol-5-yl)-biphenyl-4-ylmethyl]-3H-imidazo[4,5-b]pyridine] | 
9 | 52.5 | CCCCc1nc2c(C)cc(C(OC)OC)nc2n1Cc1ccc(-c2ccccc2-c2nnn[nH]2)cc1 [Example 11, 2-butyl-5-dimethoxymethyl-7-methyl-3-[2'-(1H-tetrazol-5-yl)-biphenyl-4-ylmethyl]-3H-imidazo[4,5-b]pyridine] | 
10 | 44.5 | CCc1nc2c(C)cc(C(OC)OC)nc2n1Cc1ccc(-c2ccccc2-c2nnn[nH]2)cc1 [Example 12, 2-ethyl-5-dimethoxymethyl-7-methyl-3-[2'-(1H-tetrazol-5-yl)-biphenyl-4-ylmethyl]-3H-imidazo[4,5-b]pyridine] | 
11 | 95.0 | CCCCc1nc2cc(CCC(=O)OCC)c(C(OC)OC)nc2n1Cc1ccc(-c2ccccc2-c2nn[nH]n2)cc1 [Example 13, 2-butyl-5-dimethoxymethyl-6-[2-(ethoxycarbonyl)-ethyl-1-yl]-3-[2'-(1H-tetrazol-5-yl)-biphenyl-4-ylmethyl]-3H-imidazo[4,5-b]pyridine] | -32
12 | 72.0 | CCCCc1nc2cc(-c3cccs3)c(C(OC)OC)nc2n1Cc1ccc(-c2ccccc2-c2nnn[nH]2)cc1 [Example 14, 2-butyl-5-dimethoxymethyl-6-(thiophen-2-yl)-3-[2'-(1H-tetrazol-5-yl)-biphenyl-4-ylmethyl]-3H-imidazo[4,5-b]pyridine] | 
13 | 82.0 | CCCCc1nc2cc(CCc3ccccc3)c(C(OC)OC)nc2n1Cc1ccc(-c2ccccc2-c2nn[nH]n2)cc1 [Example 15, 2-butyl-5-dimethoxymethyl-6-(2-phenylethyl-1-yl)-3-[2'-(1H-tetrazol-5-yl)-biphenyl-4-ylmethyl]-3H-imidazo[4,5-b]pyridine] | -36
14 | 68.5 | CCCCc1nc2cc(-c3ccc(C)cc3)c(C(OC)OC)nc2n1Cc1ccc(-c2ccccc2-c2nn[nH]n2)cc1 [Example 16, 2-butyl-5-dimethoxymethyl-6-(4-methylphenyl-1-yl)-3-[2'-(1H-tetrazol-5-yl)-biphenyl-4-ylmethyl]-3H-imidazo[4,5-b]pyridine] | 
15 | 82.0 | CCCCc1nc2cc(-c3ccc(COCc4ccccc4)cc3)c(C(OC)OC)nc2n1Cc1ccc(-c2ccccc2-c2nn[nH]n2)cc1 [Example 17, 2-butyl-5-dimethoxymethyl-6-[4-(benzyloxymethyl)-phenyl-1-yl]-3-[2'-(1H-tetrazol-5-yl)-biphenyl-4-ylmethyl]-3H-imidazo[4,5-b]pyridine] | 
16 | 89.4 | CCCCc1nc2cc(-c3ccc(CO)cc3)c(C(OC)OC)nc2n1Cc1ccc(-c2ccccc2-c2nn[nH]n2)cc1 [Example 18, 2-butyl-5-dimethoxymethyl-6-(4-hydroxymethylphenyl-1-yl)-3-[2'-(1H-tetrazol-5-yl)-biphenyl-4-ylmethyl]-3H-imidazo[4,5-b]pyridine] | -33
17 | 70.9 | CCCCc1nc2cc(-c3ccccc3[N+](=O)[O-])c(C(OC)OC)nc2n1Cc1ccc(-c2ccccc2-c2nn[nH]n2)cc1 [Example 19, 2-butyl-5-dimethoxymethyl-6-(2-nitrophenyl-1-yl)-3-[2'-(1H-tetrazol-5-yl)-biphenyl-4-ylmethyl]-3H-imidazo[4,5-b]pyridine] | -29
18 | 89.2 | CCCCc1nc2cc(-c3ccccc3N)c(C(OC)OC)nc2n1Cc1ccc(-c2ccccc2-c2nn[nH]n2)cc1 [Example 26, 2-butyl-5-dimethoxymethyl-6-(2-aminophenyl-1-yl)-3-[2'-(1H-tetrazol-5-yl)-biphenyl-4-ylmethyl]-3H-imidazo[4,5-b]pyridine] | 
19 | 87.8 | CCCCc1nc2cc(Cc3ccccc3)c(C(OC)OC)nc2n1Cc1ccc(-c2ccccc2-c2nnn[nH]2)cc1 [Example 27, 2-butyl-5-dimethoxymethyl-6-benzyl-3-[2'-(1H-tetrazol-5-yl)-biphenyl-4-ylmethyl]-3H-imidazo[4,5-b]pyridine] | 
